According to PMC5844530, “Fosmetpantotenate (RE-024), a phosphopantothenate replacement therapy for pantothenate kinase-associated neurodegeneration: Mechanism of action and efficacy in nonclinical models” (PLoS ONE, 2018):
One block for each compound: values may come before it.

Legend:
[1] = Microdialysis (brain striatal dialysate) in C57Bl6 mice; settings: striatal dialysate; oral dose at 700 mg/kg; all samples; 700 mg/kg
Method: Mice were anesthetized using isoflurane (2%, 800 mL/min O2).
For oral dosing experiments, MetaQuant microdialysis probes (regenerated cellulose membrane, BrainLink, the Netherlands) were inserted into the striatum (3 mm exposed surface). Coordinates for the tips of the probes for mice were anterior-posterior (AP) = +0.8 mm from bregma, lateral (L) = -1.7 mm from midline, and ventral (V) = -4.0 mm from dura, the toothbar set at 0 mm.
Microdialysis animal dosing and sample collection: Adult non-fasted male C57Bl6 mice (20–29 g; Harlan Laboratories, Livermore, CA), and Macaca fascicularis (4–9 kg, 3–6 yr old) were used for the experiments. For oral dosing, fosmetpantotenate was formulated as a solution in 20% hydroxypropyl-beta-cyclodextrin in 50 mM citrate buffer in water pH 5.0 and administered using a dose volume of 10 mL/kg. Mice (N = 6 serially sampled) received fosmetpantotenate as a single oral dose at 700 mg/kg and monkeys received a single oral dose at either 100 mg/kg (N = 4 serially sampled) or 300 mg/kg (N = 2 serially sampled).
Microdialysis: On the morning of the microdialysis experiment, a MetaQuant probe was inserted into the guide shaft targeting the head of the caudate nucleus and perfused at a rate of 0.15 μL/min aCSF containing 0.2% (w/v) BSA, with a carrier flow of 0.8 μL/min of ultrapure water.
A single 30 min pre-dose basal dialysate sample was collected from mice over -0.5 to 0 h, and three 30 min basal samples from monkeys over -1.5 to 0 h. Fosmetpantotenate was administered at t = 0, and 30 min dialysate samples were collected for an additional 4 h for mice and 3 h for monkeys.
Sample preparation for mouse dialysate samples: Concentrations of fosmetpantotenate, PA, and PPA in mouse dialysate were determined by Nextcea, Inc, Woburn, MA, using LC-MS/MS. Standard curves and QC samples containing fosmetpantotenate (D1 and D2) and the surrogate analytes for PA and PPA (^15N/^13C3-PA and ^15N/^13C3-PPA) were prepared fresh in 0.1% formic acid in water. Frozen study mouse dialysate samples were thawed in ice/water bath. Standards, QC samples, and thawed study dialysate samples (20 μL) were mixed with 20 μL 0.1% formic acid in water containing internal standard (50 ng/mL of ^15N/^13C3-fosmetpantotenate) and analyzed by LC-MS/MS.
LC-MS/MS analysis for mouse dialysate samples: Concentrations of fosmetpantotenate, PA, and PPA in dialysate from mice were determined by using LC-MS/MS conditions described for blood PK analysis by Nextcea, except dialysate samples were analyzed using an ACIEX API 5000 and flow rate was increased to 0.6 mL/min.
Quantitation of in vivo samples: Peak areas were integrated using Analyst software (AB Sciex, Concord, Ontario, Canada). Calibration curves for all blood samples from mouse and rat PK studies and mouse dialysate samples were prepared by plotting the analyte to internal standard (^15N/^13C3-fosmetpantotenate) peak area ratio vs concentration.

[2] = tested on: porcine brain endothelial cell (PBEC) co-culture model
Method: (§4) Permeability studies were performed after 2 days of co-culture with rat astrocytes. […] In each filter used for transport, a paracellular marker was included as an internal control to monitor the integrity of the cell monolayer. The day of the experiment, culture medium was removed and cells on Transwell inserts were pre-incubated for 30 min with Hank's Balanced Salt Solution (HBSS) containing 20 mM Hepes pH 7.4 and 0.1% bovine serum albumin (BSA). […] Aliquots from the basal compartment were taken after 1 h; fluorescence was measured using a fluorescence detector. The permeability coefficient of the total system was calculated as follows: P[cm/s]=Vd×ΔMr/A×Md×Δt Where:
(§5) To correct for the contribution of the porous polycarbonate membrane of the filter in the absence of cells, the permeability was also determined for the cell-free system. Contribution of the endothelial cell monolayer to the permeability of the cell and filter system was determined by the following equation: 1/Pe=1/Pt-1/Pf Where the total permeability of the system is denoted as Pt, the cell-free filter as Pf, and the endothelial cell layer alone as Pe. The total resistance of the system towards passage of a substance is composed of 2 resistances in series: that of the cell monolayer and that of the filter; permeability is estimated as 1/resistance [27]. […] Mass balance was determined based on the amount of compound recovered in the donor and receiver chamber at the end of the assay relative to the amount added to the donor chamber at time 0.

[3] = Metabolic stability in human whole blood; assay type: in vitro ADME; settings: human, blood; for Percentage Remaining: 0 h
Method: (§1) Metabolic stability in blood and liver microsomes: Fosmetpantotenate or its individual diastereomers (5 μM, n = 2, 37°C) were incubated in mouse, rat, cynomolgus monkey, and human whole blood. Samples (50 μL) were taken at 0, 5, 15, 30, and 60 min. Incubations of fosmetpantotenate or its individual diastereomers (1 μM, n = 2, 37°C) in pooled liver microsomes (0.25 mg protein/mL in 0.1 M phosphate buffer pH 7.4) were initiated with the addition of nicotinamide adenine dinucleotide phosphate (NADPH; 1 mM). Aliquots (100 μL) were obtained at 0, 5, 10, 20, and 40 min and added to 150 μL of 0.1% formic acid in acetonitrile-containing carbamazepine (0.5 μM) as an analytical internal standard, centrifuged, and the supernatants analyzed by LC-MS/MS.
(§2) Bioanalysis for determinations of analyte stability: Samples were analyzed using a benchtop tandem quadrupole detector (TQD) mass spectrometer (Waters Ltd, Centennial Park, Hertfordshire). […] Suitable retention and peak shape with separation of the 2 diastereomers were obtained. The chromatography column was a Phenomenex-Kinetex XB C18 (2.10 x 50 mm; 2.6 μm), with a 0.7 mL/min flow rate and a 2 μL injection volume. […] The gradient was initiated with 20% B and increased linearly, reaching 40% B at 0.6 min, followed by 50% B at 0.8 min and by 95% B at 0.9 min. Conditions were kept isocratic through 1.2 min, returned to starting conditions (20% B) at 1.25 min, and maintained at 20% B through 1.5 min before the next injection. Since fosmetpantotenate is a mixture of diastereomers which are resolved chromatographically, the fosmetpantotenate MRM area corresponds to the sum of the MRM areas of the individual diastereomers.
(§3) The percent of compound remaining was determined from the MRM area response in each sample relative to that in the T = 0 samples (normalized for internal standard). Natural log plots of the percent compound remaining over time were used to determine the t½ of compound disappearance using the relationship t½ = -0.693/λ, where λ is the slope of the natural logarithm of the percent compound remaining vs time curve.

[4] = Metabolic stability in monkey whole blood; assay type: in vitro ADME, cynomolgus monkey; settings: monkey, blood
Method: as §1, with “Samples (50 μL) were taken at 0, 5, 15, 30, and 60 min.” left out
as §2, §3

[5] = Stability in simulated gastric fluid; assay type: in vitro ADME; settings: simulated gi fluid, pH 1.2
Method: Stability in simulated gastric fluid: A stock solution of fosmetpantotenate or its individual diastereomers was prepared in 0.1% formic acid in methanol. Simulated gastric fluid, pH 1.2, was prepared with 2 g/L sodium chloride, 3.2 g/L of pepsin, and 0.7% (v/v) HCl. Gastric buffer, pH 1.2, was prepared containing 2 g/L sodium chloride and 0.7% (v/v) HCl. An appropriate aliquot of fosmetpantotenate or individual diastereomers to yield an initial concentration of 10 μM was added to both fluids, and samples were mixed at ~25°C on an orbital shaker. Aliquots (50 μL) were taken at 0, 2, and 4 h; added to 150 μL dimethyl sulfoxide (DMSO) containing an analytical internal standard; vortexed; and analyzed immediately by LC-MS/MS.
as §2, §3

[6] = Metabolic stability in mouse whole blood; assay type: in vitro ADME; settings: mouse, blood
Method: as §1, §2, §3

[7] = Metabolic stability in rat whole blood; assay type: in vitro ADME; settings: rat, blood
Method: as §1, §2, §3

in vitro = settings: pH 7.4, In Vitro Measured Papp
Method: as §4, §5

liver and brain CoA = assay: Labeled experiments: incorporation of isotopically labeled fosmetpantotenate into CoA; assay type: in vivo, mouse; settings: for Liver CoA (%) +4 AMU / Liver CoA (%) +6 AMU / Liver CoA (%) Unlabeled: 500 mg/kg PO
Excerpt: Fosmetpantotenate was labeled with three ^13C and one ^15N in the PA moiety and with one ^18O in the phosphate moiety, as indicated in Fig 10. The premise of this experiment is the following: if PPA incorporated into CoA originates from fosmetpantotenate metabolism, then all isotope labels (including the ^18O) will be retained in the CoA molecule, resulting in an increase in molecular weight of 6 atomic mass units (AMU) with respect to unlabeled CoA ([M+H]^+ = 774.3 vs 768.3, respectively; Fig 10, Path A). However, if fosmetpantotenate is hydrolyzed to PA, and PA is then re-phosphorylated by WT PanK to yield PPA, or if the ^18O is exchanged with water, then the ^18O would be lost in the process, resulting in a CoA molecule with a 4-AMU increase in molecular weight over unlabeled CoA ([M+H]^+ = 772.3 vs 768.3, respectively, […], Path B). CoA derived from endogenous PA/PPA will have the unchanged molecular weight ([M+H]^+ = 768.3).
Animal phase: C57BL6N mice, 8-week old and 19 to 21 g obtained from Charles River (Como, Italy) were used in these studies. One group of mice (N = 3 per time point) received a single oral dose of 500 mg/kg isotopically labeled fosmetpantotenate dissolved in 20% hydroxypropyl-β-cyclodextrin. Another set of mice (N = 8 per time point) received a direct administration of isotopically labeled fosmetpantotenate at 125 μg (25 mg/mL of aCSF containing 147 mM NaCl, 3.0 mM KCl, 1.2 mM CaCl2, and 1.2 mM MgCl2) via cannula into striatum. Brain, liver, and blood samples were collected at pre-dose, 6 h, 12 h (brain only), and 24 h, and were snap frozen in liquid nitrogen.
Two additional groups of mice (N = 6 per time point for each group) received 3 daily doses (8 am, 2 pm, and 8 pm to mimic an anticipated human dosing schedule) of isotopically labeled fosmetpantotenate at either 1.25 μg (0.625 mg/mL aCSF) or 12.5 μg (6.25 mg/mL aCSF) via ICV infusion cannula (2 μL), for up to 10 consecutive days. Brain (striatum) samples were collected at pre-dose, and at 12 h following the third dose on days 1, 3, 7, and 10, and were snap frozen in liquid nitrogen.
Sample processing: Brain (striatum) and liver tissues were homogenized in a Precellys homogenizer (Bertin technologies, Montigny-le-Bretonneux, France) with 3 volumes of water for each volume of tissue (1:4 dilution). Protein was precipitated by adding 500 μL methanol to 100 μL of homogenate (1:6 dilution), mixed well, and centrifuged. Blood cells (1 volume) were treated with 1:8 v:v water:methanol (1:10 dilution), mixed, and centrifuged. The supernatants (200 μL for brain and blood cells and 100 μL for liver) were dried under nitrogen, reconstituted with 100 μL ammonium acetate 10 mM (pH ~5), and injected (10 μL) into the LC for high resolution mass spectrometry (HRMS) analyses.
CoA determination: An Acquity UPLC (Waters) system was used. Samples were chromatographed on a Luna C18 column (50 x 2.0 mm; 5 μm), with a 0.4 mL/min flow rate and a 10 μL injection volume. The mobile phases were (A), 10 mM ammonium acetate in water, pH 6.8 and (B) acetonitrile:2-propanol (9:1; v:v). The gradient was started with 2% (B) and was increased linearly to reach 20% (B) at 5 min; the gradient was ramped to reach 90% (B) at 5.1 min and kept isocratic at 90% (B) through 7.1 min.
The detector was a Waters QTOF Synapt mass spectrometer, with an electrospray ion source operating in the positive scanning mode acquiring in full scan mode (accuracy <5 ppm). The following exact masses were determined: 768.1230 for CoA, 772.1301 for CoA +4 AMU, and 774.1344 for CoA +6 AMU.
The CoA levels obtained by MS/MS analyses were corrected for ^18O isotopic incorporation. CoA levels were not adjusted for the 1% and 2% of ^12C and ^14N, respectively, in the labeled fosmetpantotenate. […]

Compound: COC(=O)CCNC(=O)[C@H](O)C(C)(C)COP(=O)(N[C@@H](C)C(=O)OC)Oc1ccccc1 (single isomer, unassigned) [Compound D2]
- Dialysate Conc [1]: < 3.36 nM
- In Vitro Measured Papp [2]: 4.0 ± 1.3 10^−6 cm/s
- Mean half-life [3]: >95 min
- Percentage Remaining [3]: 100%
- Mean half-life [4]: 17 min
- Percentage Remaining ([4]; 0 h): 100%
- Percentage Remaining ([4]; 2 h): 1%
- half-life (t½) in simulated gastric fluid [5]: > 600 min
- Mean half-life [6]: <5 min
- Percentage Remaining ([6]; 0 h): 100%
- Percentage Remaining ([6]; 5 min): 1%
- Percentage Remaining ([6]; 0.25 h): 1%
- Mean half-life [7]: <5 min
- Percentage Remaining ([7]; 0 h): 100%
- Percentage Remaining ([7]; 0.5 h): 0%
- Percentage Remaining ([7]; 1 h): 0%

Compound: Cn1c(=O)c2c(ncn2C)n(C)c1=O [Caffeine]
- Papp at 1 h (in vitro): 34.3 ± 3.1 ×10⁻⁶ cm/s

Compound: COC(=O)CCNC(=O)[C@H](O)C(C)(C)COP(=O)(N[C@@H](C)C(=O)OC)Oc1ccccc1 (single isomer, unassigned) [Compound D1]
- Dialysate Conc [1]: < 4.72 nM
- In Vitro Measured Papp [2]: 4.8 ± 1.8 10^−6 cm/s
- Mean half-life [3]: 44 min
- Percentage Remaining [3]: 100%
- Mean half-life [4]: 35 min
- Percentage Remaining ([4]; 0 h): 100%
- Percentage Remaining ([4]; 5 min): 88%
- half-life (t½) in simulated gastric fluid [5]: > 600 min
- Mean half-life [6]: <5 min
- Percentage Remaining ([6]; 0 h): 100%
- Percentage Remaining ([6]; 5 min): 0%
- Percentage Remaining ([6]; 0.25 h): 0%
- Mean half-life [7]: <5 min
- Percentage Remaining ([7]; 0 h): 100%
- Percentage Remaining ([7]; 0.5 h): 0%

- blood-brain barrier permeability classification [2]: low end of permeability range
- Papp at 1 h (in vitro): 2.2 ± 0.7 ×10⁻⁶ cm/s
Compound: OC[C@@H](O)[C@@H](O)[C@H](O)[C@H](O)CO [Mannitol, reference compound]

Compound: COC(=O)C(C)NP(=[18O])(OCC(C)(C)C(O)C(=O)[15NH][13CH2][13CH2][13C](=O)OC)Oc1ccccc1 (centres unmarked) [isotopically-labeled fosmetpantotenate]
- Brain CoA (%) +4 AMU (liver and brain CoA; 1.25 μg ICV, dose day 3): 0%
- Brain CoA (%) +6 AMU (liver and brain CoA; 1.25 μg ICV, dose day 3): 0%
- Brain CoA (%) Unlabeled (liver and brain CoA; 1.25 μg ICV, dose day 3): 100%
- Brain CoA (%) +4 AMU (liver and brain CoA; 1.25 μg ICV, dose day 7): 5%
- Brain CoA (%) +6 AMU (liver and brain CoA; 1.25 μg ICV, dose day 7): 4%
- Brain CoA (%) Unlabeled (liver and brain CoA; 1.25 μg ICV, dose day 7): 91%
- Brain CoA (%) +4 AMU (liver and brain CoA; 1.25 μg ICV, dose day 10): 8%
- Brain CoA (%) +6 AMU (liver and brain CoA; 1.25 μg ICV, dose day 10): 6%
- Brain CoA (%) Unlabeled (liver and brain CoA; 1.25 μg ICV, dose day 10): 86%
- Brain CoA (%) +4 AMU (liver and brain CoA; 12.5 μg ICV, dose day 3): 8%
- Brain CoA (%) +6 AMU (liver and brain CoA; 12.5 μg ICV, dose day 3): 15%
- Brain CoA (%) Unlabeled (liver and brain CoA; 12.5 μg ICV, dose day 3): 77%
- Brain CoA (%) +4 AMU (liver and brain CoA; 12.5 μg ICV, dose day 7): 14%
- Brain CoA (%) +6 AMU (liver and brain CoA; 12.5 μg ICV, dose day 7): 27%
- Brain CoA (%) Unlabeled (liver and brain CoA; 12.5 μg ICV, dose day 7): 59%
- Brain CoA (%) +4 AMU (liver and brain CoA; 12.5 μg ICV, dose day 10): 16%
- Brain CoA (%) +6 AMU (liver and brain CoA; 12.5 μg ICV, dose day 10): 28%
- Brain CoA (%) Unlabeled (liver and brain CoA; 12.5 μg ICV, dose day 10): 56%
- Brain CoA (%) +6 AMU (liver and brain CoA; 12.5 μg ICV, dose day 10, listed as isotopically labeled-fosmetpantotenate): ~ 30%
- Brain CoA (%) +4 AMU (liver and brain CoA; 125 μg intrastriatally, 6 h): 2.8%
- Brain CoA (%) +6 AMU (liver and brain CoA; 125 μg intrastriatally, 6 h): 36.2%
- Brain CoA (%) Unlabeled (liver and brain CoA; 125 μg intrastriatally, 6 h): 61%
- Brain CoA (%) +4 AMU (liver and brain CoA; 125 μg intrastriatally, 12 h): 3.6%
- Brain CoA (%) +6 AMU (liver and brain CoA; 125 μg intrastriatally, 12 h): 46.4%
- Brain CoA (%) Unlabeled (liver and brain CoA; 125 μg intrastriatally, 12 h): 50%
- Brain CoA (%) +4 AMU (liver and brain CoA; 125 μg intrastriatally, 24 h): 4.3%
- Brain CoA (%) +6 AMU (liver and brain CoA; 125 μg intrastriatally, 24 h): 50.7%
- Brain CoA (%) Unlabeled (liver and brain CoA; 125 μg intrastriatally, 24 h): 45%
- Brain CoA (%) +6 AMU (liver and brain CoA; 125 μg intrastriatally, 24 h, listed as isotopically labeled-fosmetpantotenate): ~ 50%
- Liver CoA (%) +4 AMU (liver and brain CoA; 6 h): 1.4%
- Liver CoA (%) +6 AMU (liver and brain CoA; 6 h): 40%
- Liver CoA (%) Unlabeled (liver and brain CoA; 6 h): 58.6%
- Liver CoA (%) +6 AMU (liver and brain CoA; 6 h, listed as isotopically labeled-fosmetpantotenate): ~ 40%
- Liver CoA (%) +4 AMU (liver and brain CoA; 24 h): 8.4%
- Liver CoA (%) +6 AMU (liver and brain CoA; 24 h): 34%
- Liver CoA (%) Unlabeled (liver and brain CoA; 24 h): 58%
- Liver CoA (%) +4 AMU (liver and brain CoA; 24 h, listed as isotopically labeled fosmetpantotenate): 8%
- incorporation of fosmetpantotenate-derived PPA in brain CoA (liver and brain CoA; 500 mg/kg single oral administration): not observed

- blood-brain barrier permeability classification [2]: moderate permeability range
- Papp at 1 h (in vitro): 5.8 ± 1.9 ×10⁻⁶ cm/s
Compound: N[C@@H](Cc1ccc(O)c(O)c1)C(=O)O [L-DOPA, S-3,4-dihydroxyphenylalanine, reference compound]
